Measured values taken from EP2982680B1, “PROTAMINE PEPTIDOMIMETIC, AND PHARMACEUTICALLY ACCEPTABLE SALTS AND USE THEREOF” (Academy of Military Medical Sciences, priority 2013, dated 2014).
Where a SMILES comes first, the peptide text is derived from it. Where no end group is shown, it is not given here.

Columns and labels:
[1] = Water solubility of synthesized peptides
[2] = amino acid; cited from earlier work
heparin = assay: Antagonism of protamine-like peptides against heparin anticoagulation in vitro (heparin neutralization, rabbit whole blood clotting); parameters: species or system New Zealand rabbits; details: for Amount of neutralized heparin (U/mg) Mean ± SD: average from five tests; for Amount of neutralized heparin (U/mg) Mean ± SD / Clotting time / Amount of neutralized heparin (U/mg) 1 / Amount of neutralized heparin (U/mg) 2 / Amount of neutralized heparin (U/mg) 3 / Amount of neutralized heparin (U/mg) 4 / Amount of neutralized heparin (U/mg) 5: rabbit whole blood added with heparin; for I (Anti-heparin index): concentration of polypeptide/1 unit of heparin, lower index = better antagonism; for Clotting time: 37 °C, blank control 10.62±0.49; for Amount of neutralized heparin (U/mg) 1: repeat 1 of 5; for Amount of neutralized heparin (U/mg) 1 / Amount of neutralized heparin (U/mg) 2 / Amount of neutralized heparin (U/mg) 3 / Amount of neutralized heparin (U/mg) 4 / Amount of neutralized heparin (U/mg) 5: test sample 1 mg per mL; for Amount of neutralized heparin (U/mg) 2: repeat 2 of 5; for Amount of neutralized heparin (U/mg) 3: repeat 3 of 5; for Amount of neutralized heparin (U/mg) 4: repeat 4 of 5; for Amount of neutralized heparin (U/mg) 5: repeat 5 of 5
Excerpt: Reference standard of heparin was exactly weighed and then dissolved into several solutions with different concentrations by adding 0.9% sodium chloride solution according to the marked potency. The increment of heparin units per mL between two solutions having adjacent concentrations should be similar with no more than five units.
The test sample was the protamine-like peptide. If the test sample was in a powder form, it was accurately weighed on the basis of dry sample. Then, a solution of 0.9% sodium chloride was added thereto to provide a solution containing 1 mg of test sample per mL.
Eight small dry clean teat tubes with the same diameter (0.8 × 3.8 cm) were picked. Tube 1 and Tube 8 were used as the blank control into which 0.2 mL of 0.9% sodium chloride solution was added. Tube 2 to Tube 7 were used as the ones with test samples into each of which 0.1 ml of test solution was added together with 0.1 ml of heparin standard dilution having one concentration mentioned above. The mixture was well mixed immediately. An appropriate amount (0.8 ml) of whole blood freshly drawn from rabbits was added into these eight test tubes described above and then well mixed immediately to avoid generation of bubbles. Timing began at that time and the test tubes were all placed in a thermostatic water bath at 37 ± 0.5 °C. The interval between blood sampling and tube incubation in the thermostatic water bath should not be longer than two minutes. If the plasma was used, then 0.7 mL of plasma was added to each of the test tubes described above and then the test tubes were placed into a thermostatic water bath at 37 ± 0.5 °C to warm up for 5 to 10 minutes. Then, into each test tube, 0.1 mL of 1% calcium chloride solution was added and immediately mixed to avoid generation of bubbles. At that time, timing began. The test tubes were observed and the time until coagulation was recorded.
The clotting time in one control tube should not be more than 1.35 times longer than that in the other control tube. Among test tubes where the clotting time was no longer than 150% of the average coagulating time in two control tubes, the tube with the highest concentration of heparin was used as the endpoint tube.
The test was repeated for five times. The concentration of heparin in the endpoint tube was measured in all five tests, and the deviation was not allowed to be higher than 10 units. The average from five tests was deemed as the number of units of the heparin neutralized by 1 mg of the test sample (dry product) (the amount of neutralized heparin).
The anticoagulant time of heparin, i.e. the clotting time from the addition of the series of protamine-like peptides, were recorded where the clotting time in tubes with plasma but not heparin was considered as the control clotting time. The average value in each coagulation test was calculated, and ratio of the concentration in nmol of the added potamine-like peptide to 1 IU of neutralized heparin was regarded as the anti-heparin index (I) of the protamine-like peptide. Anti-heparin index = concentration of polypeptide/1 unit of heparin (nmol/U). [formula]

With RRRRR [R5, (R)5] the water solubility [1] was “good water solubility”.
In the case of RRRRRRRRRRRRRRRRRRRR [R20, (R)20], the water solubility [1] is reported as “good water solubility”.
In the case of `N[C@@H](Cc1c[nH]cn1)C(=O)O` [Histidine], the “isoelectric point (pI)” value [2] is given as 7.59.
For `N=C(N)NCCC[C@H](N)C(=O)O` [Arginine], the “isoelectric point (pI)” value [2] is listed as 10.76.
For RRRRRRHRRRRRRRR [R15-8], the “Amount of neutralized heparin (U/mg) Mean ± SD” value (heparin) was 108.4±1.32 U/mg, the “I (Anti-heparin index)” value (heparin) was 3.93 nmol/U and the “Clotting time” value (heparin) was 14.35 ± 0.38 min. The “Amount of neutralized heparin (U/mg) 1” value (heparin) was 110 U/mg, the “Amount of neutralized heparin (U/mg) 2” value (heparin) was 105 U/mg and the “Amount of neutralized heparin (U/mg) 3” value (heparin) was 105 U/mg. For the same molecule, the “Amount of neutralized heparin (U/mg) 4” value (heparin) was 112 U/mg, the “Amount of neutralized heparin (U/mg) 5” value (heparin) was 110 U/mg and the water solubility [1] was “good water solubility”.
For `NCCCC[C@H](N)C(=O)O` [Lysine], the “isoelectric point (pI)” value [2] is given as 9.74.
In the case of `N=C(N)NCCC[C@H](NC(=O)[C@H](CCCNC(=N)N)NC(=O)[C@H](CCCNC(=N)N)NC(=O)[C@H](CCCNC(=N)N)NC(=O)[C@H](Cc1c[nH]cn1)NC(=O)[C@H](CCCNC(=N)N)NC(=O)[C@H](CCCNC(=N)N)NC(=O)[C@H](CCCNC(=N)N)NC(=O)[C@H](CCCNC(=N)N)NC(=O)[C@H](CCCNC(=N)N)NC(=O)[C@H](CCCNC(=N)N)NC(=O)[C@H](CCCNC(=N)N)NC(=O)[C@H](CCCNC(=N)N)NC(=O)[C@H](CCCNC(=N)N)NC(=O)[C@@H](N)CCCNC(=N)N)C(=O)O` [R15-5], the water solubility [1] is reported as “good water solubility”.
In the case of `N=C(N)NCCC[C@H](NC(=O)[C@H](CCCNC(=N)N)NC(=O)[C@@H](N)CCCNC(=N)N)C(=O)O` [R3, (R)3] (H-Arg-Arg-Arg-OH), the water solubility [1] is reported as “good water solubility”.
With RRRRRRRRRRRRRHR [R15-2] the “Amount of neutralized heparin (U/mg) Mean ± SD” value (heparin) was 110±1.342 U/mg, the “I (Anti-heparin index)” value (heparin) was 4.66 nmol/U and the “Clotting time” value (heparin) was 13.35 ± 0.56 min. For the same molecule, the “Amount of neutralized heparin (U/mg) 1” value (heparin) was 110 U/mg, the “Amount of neutralized heparin (U/mg) 2” value (heparin) was 113 U/mg and the “Amount of neutralized heparin (U/mg) 3” value (heparin) was 110 U/mg. For the same molecule, the “Amount of neutralized heparin (U/mg) 4” value (heparin) was 110 U/mg, the “Amount of neutralized heparin (U/mg) 5” value (heparin) was 110 U/mg and the water solubility [1] was “good water solubility”.
In the case of `N=C(N)NCCC[C@H](NC(=O)[C@H](CCCNC(=N)N)NC(=O)[C@H](CCCNC(=N)N)NC(=O)[C@H](CCCNC(=N)N)NC(=O)[C@H](CCCNC(=N)N)NC(=O)[C@H](CCCNC(=N)N)NC(=O)[C@@H](N)CCCNC(=N)N)C(=O)O` [R7, (R)7], the water solubility [1] is reported as “good water solubility”.
In the case of KKKKKKKKKKKKKKK [K15, (K)15], the water solubility [1] is reported as “good water solubility”.
